Reference: US20030171420A1, “Compounds and compositions for use in ingibting endoparasitic fatty acid biosynthesis” (priority 2000, published 2003)

Assays:
[1] = test system: Plasmodium falciparum; experiment: Plasmodium falciparum growth inhibition in human red blood cells (parasite lactate dehydrogenase assay); format: cell-based; settings: for IC50: Plasmodium falciparum, Erythrocyte, at 48 hours, P. falciparum in human red blood cells, read-out: 50% inhibitory concentration (IC50) for parasite growth
Protocol: Plasmodium falciparum was maintained in human red blood cells and the inhibitory effects of racemic thiolactomycin, or compound C on its growth was measured, employing assay techniques as described by Makkler, M. T., Ries, J. M., Williams, J. A., Bancroft, J. E., Piper, R. C., Gibbins, B. L. and Hinrichs, D. J., Parasite lactate dehydrogenase as an assay for Plasmodium falciparum drug sensitivity. Am. J. Trop. Med. Hyg. 48, 739-41 (1993).

[2] = test system: fatty acid synthesis in Trypanosoma brucei; settings: Morita et al., Science 288: 140-143 (2000); read-out: IC50 for inhibition of fatty acid synthesis in Trypanosoma brucei; cited from earlier work
[3] = test system: Eimeria tenella parasites; experiment: Eimeria tenella invasion of MDBK cells after preincubation of parasites with compound; format: cell-based
Protocol: (§1) Compound C was tested against Eimeria tenella parasites in two separate assay procedures, as described (i) in Inhibition of the development of Eimeria tenella in cultured bovine kidney cells by a soluble factor produced by peripheral blood lymphocytes from immune chickens, J. M. Bumstead, S. J. Topham, F. M. Tomley, Parasitology, 117.39-47 (1998) and (ii) Eimeria tenella: Parasite-specific incorporation of 3H Uracil as a quantitative measure of intracellular development, Schmatz, D. M., Crane, M. S., is Murray, P. K., Journal of Protozology (1986) 33:109-114.
Preincubation of compound C with parasites caused a significant reduction in invasion of Madin-Darby Bovine Kidney (MDBK) cells at concentrations of 10 μM and above.

[4] = test system: Eimeria tenella parasites; experiment: Eimeria tenella uracil uptake in infected MDBK cells; format: cell-based; settings: uracil uptake as indicator of parasite viability
Protocol: as §1
In the second assay using infected MDBK cells, compound C caused a significant decrease in the uptake of uracil by the parasites (a recognised indicator of parasite viability) at concentrations greater than 5 μM.

| Compound | IC50 [1] | IC50 [2] | times more active than racemic thiolactomycin in inhibiting growth of Plasmodium falciparum ([1]; ratio of IC50 values at 48 hours) | concentrations causing a significant reduction in invasion of Madin-Darby Bovine Kidney (MDBK) cells [3] | concentrations causing a significant decrease in the uptake of uracil by the parasites [4] |
| --- | --- | --- | --- | --- | --- |
| C=C/C(C)=C/C1(C)SC(=O)C(C)=C1O (racemic) [Racemic thiolactomycin, Thiolactomycin, reference compound] | 40 µM | ~150 µM | – | – | – |
| CC(C)=CCC/C(C)=C/CC1(C)SC(=O)C(C)=C1O (stereo not drawn) [Compound C] | 0.5 µM | – | approximately 80 times | ≥ 10 µM | greater than 5 μM |
